Common to all, as to test: DTP human tumour cell line panel, 48 h
Assay [1] has as its system CCRF-CEM.
The subject of assay [2] is MOLT-4.
Assay [3] concerns SK-MEL-28.
In assay [4] the test system is CAKI-1.
The test system of assay [5] is UACC-62.
The test system of assay [6] is HT-29.
The subject of assay [7] is A498.
Assay [8] deals with ACHN.
For assay [9], the system named is SF-539.
Assay [10] concerns SNB-75.
Assay [11] has as its system SK-MEL-5.
Assay [12] relates to OVCAR-8.
In assay [13] the test system is M14.
In assay [14] the test system is SR.
In assay [15] the test system is RPMI-8226.
For assay [16], the system named is HCT-15.
Assay [17] relates to TK-10.
The test system of assay [18] is NCI/ADR-RES.
Assay [19] has as its system NCI-H460.
Assay [20] deals with UACC-257.

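These data come from cells grown in 96-well plates and exposed to compound for 48 hours at five concentrations. GI50 = concentration required for 50% inhibition of growth.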 Active and inactive are the calls of the source. No stated cut-off is given here; in the data, active = GI50 up to about 1.1 µM and inactive = higher.

`CN(C1=NCCO1)c1cccc2ccccc12`: the GI50 in assay [1], in [2], in assay [3], in [4], in assay [5] and in [6] was > 10 µM (inactive) in each case. The GI50 (in general, the concentration that inhibits growth by half) was > 10 µM (inactive) in assay [7]; > 10 µM (inactive) in [8]; > 10 µM (inactive) in [9]; 9.29 µM (inactive) in [10]; > 10 µM (inactive) in assay [11]; > 10 µM (inactive) in [12]. The GI50 is > 10 µM (inactive) in [13]; > 10 µM (inactive) in assay [14]; > 10 µM (inactive) in assay [15]; above 10 µM in [16]; > 10 µM (inactive) in assay [17]; > 10 µM (inactive) in assay [18]. In addition, the GI50 in [19] is > 10 µM (inactive).
Regarding `C=CCc1cccc2cc(C(=O)Nc3ccc(C)cc3)c(=N)oc12`, the GI50 in assay [1], in assay [2], in [3], in [4], in assay [5] and in assay [6] was > 100 µM (inactive) in each case. For the same compound, the GI50 in [7], in assay [8], in [20], in assay [10], in assay [11] and in assay [12] was > 100 µM (inactive) each time. The GI50 in [13] is > 100 µM (inactive); in assay [14] it was > 100 µM (inactive); in assay [15], > 100 µM (inactive); in [16], above 100 µM; in assay [18], > 100 µM (inactive); in assay [19] it was > 100 µM (inactive).
As for `Cc1ccnc2nc(N)ccc12`, the GI50 in assay [1], in assay [2], in assay [3], in [4], in [5] and in [6] was > 100 µM (inactive) each time. Further, the GI50 in [7] was > 100 µM (inactive); in assay [8], > 100 µM (inactive); in assay [20], > 100 µM (inactive); in assay [9], > 100 µM (inactive); in assay [10], 66.7 µM (inactive); in assay [11], > 100 µM (inactive). The GI50 in [12] was > 100 µM (inactive); in [13], > 100 µM (inactive); in [14] it was > 100 µM (inactive); in assay [15] it was > 100 µM (inactive); in [16], above 100 µM; in assay [17] it was > 100 µM (inactive). Moreover, the GI50 in assay [18] and in assay [19] was > 100 µM (inactive) each time.
Take `Cc1cc(=O)nc(S(=O)(=O)NC(=S)Nc2ccc(Cl)cc2)[nH]1`: the GI50 in assay [1] is > 100 µM (inactive); in assay [2], 10.2 µM (inactive); in assay [3] it was > 100 µM (inactive); in assay [4], 77.8 µM (inactive); in assay [5] it was > 100 µM (inactive); in assay [6] it was > 100 µM (inactive). Besides, the GI50 in assay [7] was > 100 µM (inactive); in assay [8], > 100 µM (inactive); in [20] it was > 100 µM (inactive); in assay [9], > 100 µM (inactive); in [10], 64 µM (inactive); in assay [11] it was > 100 µM (inactive). In addition, the GI50 was > 100 µM (inactive) in assay [12]; > 100 µM (inactive) in assay [13]; 18.8 µM (inactive) in [14]; 34.4 µM (inactive) in assay [15]; above 100 µM in [16]; > 100 µM (inactive) in [17]. The GI50 in [18] and in assay [19] was > 100 µM (inactive) each time.
As to `Cc1cccc(C)c1NC(=O)Nc1ccc(S(N)(=O)=O)cc1`, the GI50 in assay [1], in assay [2], in [3], in [4], in assay [5] and in [6] was > 100 µM (inactive) in each case. In addition, the GI50 in assay [7], in [8], in assay [20], in [9], in [10] and in assay [11] was > 100 µM (inactive) throughout. Moreover, the GI50 in assay [12] was > 100 µM (inactive); in [13] it was > 100 µM (inactive); in [14], > 100 µM (inactive); in assay [15], > 100 µM (inactive); in assay [16], above 100 µM; in assay [17], > 100 µM (inactive). For the same compound, the GI50 in assay [18] and in [19] was > 100 µM (inactive) in each case.
Regarding `O=C(O)c1ccc(C(=O)O)c2c(C(=O)O)ccc(C(=O)O)c12`, the GI50 in assay [2], in assay [3], in assay [4], in assay [5], in [6] and in assay [7] was > 100 µM (inactive) in each case. In addition, the GI50 in [8], in assay [20], in assay [9], in assay [10], in [11] and in assay [12] was > 100 µM (inactive) throughout. The GI50 in [13] was > 100 µM (inactive); in [14], > 100 µM (inactive); in assay [15], > 100 µM (inactive); in assay [16], above 100 µM; in assay [17], > 100 µM (inactive); in assay [18], > 100 µM (inactive). Further, in [19], the GI50 is > 100 µM (inactive).

The record behind these values is ChEMBL document CHEMBL1201862, “PubChem BioAssay data set” (2004).
